Like-named read-outs stand apart in the source and are kept apart here.
Tests used:
Design in all cases: species or system human
[1] = tested on: Cluster 1 (213 genes); assay: RNAseq whole blood transcriptomics, WGCNA Cluster 1 and pathway analysis
Procedure: (§1) In order to gain insights into ANAVEX 2-73 response pathways, during the Phase 2 study, patients' DNA and RNA sequencing were analyzed. Transcriptomic samples of 65 patients enrolled in either High Dose or Mid Dose arms were collected at baseline and at the end of treatment (Week 14). The expression of 14,150 genes was measured. No transformation was applied to the TPM values. Values associated with a with RIN s 4.0 were discarded. The actual dose of ANAVEX 2-73 (blarcamesine) that was given to each patient during the trial was assessed and integrated into the database. To characterize the gene dysregulations, a pathway database was built using an aggregation of public databases including KEGG, Panther, Allen, Brain Atlas, Gene Ontology, and Reactome.
(§2) The genes were clustered together using WGCNA, starting from their correlation of TPM expression values across samples. Seventeen clusters with size ranging from 13 to 11,190 genes were obtained through this gene clusterisation. The TPM expression values of genes in clusters were then aggregated in a single “eigengene” for each cluster. This eigengene served as a representant of the overall dysregulation of the cluster. Secondly, a cluster filtering was performed, wherein patients' arm and dose information were taken into account based on mixed effect models. For each cluster, the eigengene was used as target variable of a linear mixed effect model with 3 covariates: ActualDose, Patient, and timepoint. For each cluster, the contrast ActualDose, i.e. treated vs placebo were evaluated across all timepoints. P-values were obtained with Dunnett's test. Regardless of the cluster and pathway, pathways with less than 4 genes in a cluster were removed, to compensate for the large variability of cluster size and corresponding variability of number of pathways identified in each clusters. The ratio between cluster size and number of pathways was calculated, and top 2 clusters were retained for further Analysis. Cluster 1 contained 213 genes (n1=213) and 37 pathways, and Cluster 2 contained 962 genes (n2=962) and 317 pathways. […] Thirdly, the two retained clusters were characterized and underwent pathway analysis. The characterization and analysis were applied to all the genes of the cluster (whole cluster), and to the genes of the clusters that are known to have biological interactions (reduced cluster). In the whole cluster analysis, overrepresented pathways were identified using EnrichR package with the parameters of Fisher's adjusted p-value p<0.05 (Benjamini-Hochberg adjustment for multiple testing) and minimum pathway size 20. In the reduced cluster analysis, genes that have no interaction with any other genes of the cluster were discarded, resulting in a reduced cluster. Pathway analysis was performed on these reduced clusters. False Discovery Rate with adjustment for multiple testing (Benjamini-Hochberg procedure) was used to characterize pathways' over-representation. Known interactions between the genes of the cluster were assessed using STRING database with the parameters of Edge score >0.150, and no text mining edges. Known interactions were obtained from public databases, such as KEGG, Panther, Allen, Brain Atlas, Gene Ontology, and Reactome.
(§3) Whole Blood Transcriptomics Analysis (RNAseq) of patients with Parkinson's disease with dementia (PDD) was performed for the ANAVEX®2-73-PDD-001 study (FIG. 1) at two timepoints: Baseline and Week 14 (end of trial). All available RNA samples with […] (RNA integrity number, using 130 samples) were analyzed. The expression of 14,150 genes at these two timepoints were analyzed from both placebo and ANAVEX® 2-73 treated patients.
(§4) The above method was performed as illustrated in FIG. 2B. […] Then, the cluster's eigengene3 (one of a set of a genes matrix that tabulates the mRNA or gene expression of the genes across the sample) was used as summary of expression level of the cluster. […]

[2] = tested on: Cluster 2 (962 genes); assay: RNAseq whole blood transcriptomics, WGCNA Cluster 2 and pathway analysis; settings: for Number of pathways significantly overrepresented in second cluster: among its 317 pathways
Procedure: as §1, §2, §3, §4

[3] = tested on: gene clusters differentially expressed in PDD patients; assay: RNAseq whole blood transcriptomics, gene clusters overall
Procedure: as §1
The genes were clustered together using WGCNA, starting from their correlation of TPM expression values across samples. Seventeen clusters with size ranging from 13 to 11,190 genes were obtained through this gene clusterisation. The TPM expression values of genes in clusters were then aggregated in a single “eigengene” for each cluster. This eigengene served as a representant of the overall dysregulation of the cluster. […] For each cluster, the contrast ActualDose, i.e. treated vs placebo were evaluated across all timepoints. […] The ratio between cluster size and number of pathways was calculated, and top 2 clusters were retained for further Analysis. […] Known interactions between the genes of the cluster were assessed using STRING database with the parameters of Edge score >0.150, and no text mining edges. […]
Whole Blood Transcriptomics Analysis (RNAseq) of patients with Parkinson's disease with dementia (PDD) was performed for the ANAVEX®2-73-PDD-001 study (FIG. 1) at two timepoints: Baseline and Week 14 (end of trial). All available RNA samples with […] (RNA integrity number, using 130 samples) were analyzed. The expression of 14,150 genes at these two timepoints were analyzed from both placebo and ANAVEX® 2-73 treated patients. […]

CN(C)CC1CCOC1(c1ccccc1)c1ccccc1.Cl (stereo not drawn) [ANAVEX2-73, tetrahydro-N,N-dimethyl-2,2-diphenyl-3-furanmethanamine hydrochloride]
Overlap [1]: 13/273
Number of pathways significantly overrepresented in first cluster ([1]; among its 37 pathways): 10 pathways
Overlap ([1]; genes of pathway in Cluster 1/genes in pathway, KEGG 2021, Alzheimer disease): 15/369
Overlap ([1]; genes of pathway in Cluster 1/genes in pathway, KEGG 2021, Amyotrophic lateral sclerosis): 14/364
Overlap ([1]; genes of pathway in Cluster 1/genes in pathway, KEGG 2021, Diabetic cardiomyopathy): 9/203
Overlap ([1]; genes of pathway in Cluster 1/genes in pathway, KEGG 2021, Huntington disease): 13/306
Overlap ([1]; genes of pathway in Cluster 1/genes in pathway, KEGG 2021, Non-alcoholic fatty liver disease): 8/155
Overlap ([1]; genes of pathway in Cluster 1/genes in pathway, KEGG 2021, Oxidative phosphorylation): 8/133
Overlap ([1]; genes of pathway in Cluster 1/genes in pathway, KEGG 2021, Parkinson disease): 12/249
Overlap ([1]; genes of pathway in Cluster 1/genes in pathway, KEGG 2021, Pathways of neurodegeneration): 15/475
Overlap ([1]; genes of pathway in Cluster 1/genes in pathway, KEGG 2021, Proteasome): 4/46
Overlap [2]: 45/273
Number of pathways significantly overrepresented in second cluster ([2]; listed as ANAVEX 2-73, hydrochloride): 15 pathways
Number of pathways significantly overrepresented in second cluster ([2]; listed as ANAVEX® 2-73, hydrochloride): 10 pathways
Overlap ([2]; genes of pathway in Cluster 2/genes in pathway, KEGG 2021, Alzheimer disease): 47/369
Overlap ([2]; genes of pathway in Cluster 2/genes in pathway, KEGG 2021, Amyotrophic lateral sclerosis): 46/364
Overlap ([2]; genes of pathway in Cluster 2/genes in pathway, KEGG 2021, Cardiac muscle contraction): 11/87
Overlap ([2]; genes of pathway in Cluster 2/genes in pathway, KEGG 2021, Coronavirus disease): 80/232
Overlap ([2]; genes of pathway in Cluster 2/genes in pathway, KEGG 2021, Diabetic cardiomyopathy): 36/203
Overlap ([2]; genes of pathway in Cluster 2/genes in pathway, KEGG 2021, Huntington disease): 48/306
Overlap ([2]; genes of pathway in Cluster 2/genes in pathway, KEGG 2021, Non-alcoholic fatty liver disease): 34/155
Overlap ([2]; genes of pathway in Cluster 2/genes in pathway, KEGG 2021, OProteasome): 9/46
Overlap ([2]; genes of pathway in Cluster 2/genes in pathway, KEGG 2021, Oxidative phosphorylation): 36/133
Overlap ([2]; genes of pathway in Cluster 2/genes in pathway, KEGG 2021, Parkinson disease): 46/249
Overlap ([2]; genes of pathway in Cluster 2/genes in pathway, KEGG 2021, Pathways of neurodegeneration): 50/475
Overlap ([2]; genes of pathway in Cluster 2/genes in pathway, KEGG 2021, Retrograde endocannabinoid signaling): 24/148
Overlap ([2]; genes of pathway in Cluster 2/genes in pathway, KEGG 2021, Ribosome): 96/158
Overlap ([2]; genes of pathway in Cluster 2/genes in pathway, KEGG 2021, Thermogenesis): 45/232
Overlap ([2]; genes of term in Cluster 2/genes in term, Allen Brain Atlas, Anterior olfactory nucleus): 27/300
Overlap ([2]; genes of term in Cluster 2/genes in term, Allen Brain Atlas, Anterior olfactory nucleus, external part): 34/300
Overlap ([2]; genes of term in Cluster 2/genes in term, Allen Brain Atlas, Anterior olfactory nucleus, layer 1): 36/300
Overlap ([2]; genes of term in Cluster 2/genes in term, Allen Brain Atlas, Main olfactory bulb): 31/300
Overlap ([2]; genes of term in Cluster 2/genes in term, Allen Brain Atlas, Main olfactory bulb, glomerular layer): 36/300
Overlap ([2]; genes of term in Cluster 2/genes in term, Allen Brain Atlas, Main olfactory bulb, inner plexiform layer): 28/300
Overlap ([2]; genes of term in Cluster 2/genes in term, Allen Brain Atlas, Main olfactory bulb, mitral layer): 28/300
Overlap ([2]; genes of term in Cluster 2/genes in term, Allen Brain Atlas, Main olfactory bulb, outer plexiform layer): 30/300
Overlap ([2]; genes of term in Cluster 2/genes in term, Allen Brain Atlas, OB olfactory fiber layer): 33/300
Overlap ([2]; genes of term in Cluster 2/genes in term, Allen Brain Atlas, Olfactory areas): 27/300
Overlap ([2]; genes of term in Cluster 2/genes in term, Allen Brain Atlas, Olfactory bulb, principal part): 32/300
Cluster 2 eigengene expression ([2]; high oral dose vs placebo): significantly increased
Number of brain areas significantly overrepresented in second cluster ([2]; n2=962 genes): 74 brain areas
Number of overrepresented brain areas linked to the olfactory bulb ([2]; out of 74): 11 brain areas
Number of clusters with significant association between treatment and estimated marginal mean expression ([3]; Dunnett's test, linear mixed-effect model): 6 clusters
Dysregulations of Clusters 1 and 2 ([3]; highest dose): significantly linked to the highest dose
Regulation of both identified clusters ([3]; treated patients compared to placebo, 14 weeks): up-regulated

Source: US20260325481A1, “THERAPY SELECTION AND TREATMENT OF NEURODEGENERATIVE DISORDERS” (Anavex Life Sciences Corp., priority 2022, published 2026)
